These results are taken from patent publication US6455593B1, “Method of dynamic retardation of cell cycle kinetics to potentiate cell damage” (priority 1995, dated 2002).

The test system of assay [1] is U937 cells. The assay can be described thus: Flow cytometric cell cycle analysis (propidium iodide). The settings on record: bivariate flow cytometry, PI and fluorescein-labelled antibody to BrdU. The class given is cell-based, human. The procedure:
Flow cytometric analyses were performed with a Coulter Epics System (purchased from Coulter Corp, Hialeah, Fla.). Cells were disrupted in buffer with 0.1% Triton-X 100 (or 0.6 % NP-40), so that the nuclei could be stained with 0.05% propidium iodide (PI). See Shapiro N M, Practical Flow Cytometry, Man R Liss, NY (1988); Nicoletti I et al., J Immunol Methods 139:271-9 (1991). Analyses of 10,000 nuclei were performed with graduated concentrations of dThd at serial time points. Histograms of PI fluorescent emissions at 675±10 nm were used to discriminate cell cycle fractions of the target population. The proportion of cells in each phase of the cell cycle is represented by stack bars above the X-axis as a fraction of those cells with intact DNA structure. The fraction of cells with depleted DNA in each sample is represented below the X-axis as a percentage of the total cell number. Cells with depleted DNA are presumed apoptotic. Crompton S T et. al. Biophys. Biochem. Res. Comm. 183:532-537 (1992). Each stack bar in FIG. 5 represents the cell cycle distribution of a population sample of >10,000 cells, analyzed for each indicated dThd concentration at indicated treatment times.
Flow cytometric analyses were performed as in Example 2. The results are shown in plot A of FIG. 5 from Example 2.
The U937 cells were exposed to a range of concentrations below the IC40 and sampled for flow cytometry at intervals of 8, 16, and 24 hours. Flow cytometric analysis was performed as described in Example 2.
(In general: A flow cytometer gives signals particle by particle.)

Assay [2] deals with human promonocytic lymphoma cells (U937). Description: Microculture indicator system (MIS), MTT growth inhibition assay with bivariate serial dilutions. The settings on record: U937. The class given is cell-based. The procedure: Microcultures of human promonocytic lymphoma cells (U937) (“the U937 cells”) originally obtained from the American Type Culture Collection (CRL 1593) and later grown by Dr. K. Zoon at the FDA in Bethesda, Md. were set up in a multiwell plate with serial two-fold dilutions of dThd in tissue culture growth medium (RPMI 1640 plus 10% Nurserum and antibiotics). The volume of medium per well was 100 μl and the cell number per well was about 1×10^5. The plate was incubated at 37° C. for 24 hr.
A dye, 3-[4,5-dimethylthiazol-2-yl]-2,5-diphenyl-tetrazolium bromide (MTT), was used as a chromogenic indicator of the metabolically active cell mass. Viable cells metabolize the dye and accumulate a reduced formazan product (blue color) which is solubilized for colorimetry. Mossman T, J. Immunol. Methods 5:55-63 (1983); Li L and Lau B H S, In Vitro Cell Dev. Biol. 29A:531-536 (1993). The MTT assay has been established as useful for measuring either growth inhibition or population killing. Plowman, supra. The MTT method is ideal for cells tested in suspension growth, and can also be used for some cells growing in monolayers. […] Alley, supra; Hofs, supra; Wilson J K et al., Br. J. Cancer 62:189-94 (1990); Plowman, supra.
Thirty μl of 0.5% MTT in phosphate buffered saline was added to each microculture well at the appropriate time. After incubation at 37° C. for 3 hr, 120 μl of an aqueous solution of 10 % SDS with 0.01 N HCl was added to release and dissolve formazan product. This was accomplished by overnight incubation of the plate at 37° C. After careful mixing of the microwell contents by placing the plates on an orbital shaker for 5 minutes the absorbencies were quantitated by spectrophotometry at 570 nm with a Ceres UV 900 HDI microwell plate reader (from Biotek Instruments Inc, Winooski, Vt. 05404-0998). Absorbance data was normalized to a blank well containing all reagents without cells and was collected semi-automatically.
Flat-bottom 96-well plates of tissue culture quality (Corning or Costar) were set up with two-fold serial dilutions of each agent to be tested, e.g., the RA and TCI, using a multichannel pipettor with adjustable volume, e.g., Costar or Rainin, to perform serial mixing. This set-up is diagrammed in FIG. 12. […] In each plate, a total of 59 wells then contained bivariate agent combinations, the bivariate serial dilutions.
Agents were serially diluted by serial mixing in two separate plates or series of wells, and then were combined prior to addition of a fixed volume and density of the U937 cells in a suspension calculated to deliver about 1×10^5 cells per well.
Cells were added after serial dilutions of the dThd had been dispensed. Cells were dispensed at about 10×10^4 cells per microwell to provide optimal sensitivity of detection of cell damage in subsequent calorimetric assays. […] The final volume of medium was 100 μl/well. The plates were further incubated at 37° C. for a total duration of 18-24 h. The dye MTT was used as a chromogenic indicator of the residual and metabolically active cell mass. (Described in Example 1).
In this MTT assay, normalized absorbance data was collected semi-automatically from each microculture well with a Ceres UV 900 HD1 plate reader, from Biotek Instruments Inc., Winooski, V T 05404-0998, stored in an EIA file under the Ceres 900 program, transferred in comma delimited format to a floppy diskette, and imported into a spread sheet program (Borland Quattro Pro) for data manipulations.

The subject of assay [3] is U937 cells. Description: DNA gel electrophoresis for DNA fragmentation (apoptosis). The class given is cell-based, human. Here is the method: Samples of the U937 cells were exposed to a series of concentrations of dThd for 24 hr. Their DNA was isolated by lysis of cell samples in TE buffer containing TRIS 10 mM, EDTA 10 mM, SDS 0.5% and proteinase K 200 μg/ml at […] for 2 h. The proteins were precipitated in a IM solution of NaCl and centrifuged at 2,500×g for 30 min at […] DNAse free RNase (25 μg/ml) was added to the supernatant and incubated for 30 min at 37° C. Spectrophotometric quantitation of the DNA in the supernatant was quantitated by absorbance spectrophotometry at 260 nm. Volumes adjusted to contain equal amounts of DNA were mixed with a loading buffer of 40% (w/v) sucrose, 0.1M EDTA pH 8.0, 0.5% (w/v) sodium lauryl sulphate and 0.05% (w/v) bromophenol blue. […] Separated bands of DNA were stained with ethidium bromide and photographed in UV light (Fotodyne Inc.). […] The lowest molecular weight (about 180 bp) was determined with a standard 123 bp ladder from Sigma Chemical Co. (Cat. #D5042). The result shown is a classical “DNA ladder,” characteristic of the fragmentation of DNA macromolecules in apoptosis. See Tomei, supra; Obeid, supra; Gold, supra.

In the case of `O=c1[nH]c(=O)n([C@H]2C[C@H](O)[C@@H](CO)O2)cc1Br` [BrdU, bromodeoxyuridine], the “Effect on S phase” value in assay [1] is given as “produced a slowing of S phase similar to that caused by dThd”. Also, the “RA concentration for STSP potentiation relative to concentration causing cell cycle arrest” value in assay [2] is listed as “at least one log lower”. In addition, in assay [2] (BrdU 0.01 mM (c19) for 4 H, STSP for 18 H, total 22 H, STSP nM rows r7-r12: 200,100,60,26,12.6,6.25, r14 BrdU alone), the “Growth inhibition (MTT), BrdU 0.01 mM (ninth dilution)” value worked out at 4%. The “Growth inhibition (MTT), BrdU 0.01 mM (tenth, last dilution)” value in assay [2] (BrdU 0.01 mM (c21, last dilution) for 4 H, STSP for 18 H, total 22 H, STSP nM rows r7-r12: 200,100,60,26,12.6,6.25, r14 BrdU alone) came to 4%. Besides, in assay [2] (BrdU 0.02 mM for 4 H, STSP for 18 H, total 22 H, STSP nM rows r7-r12: 200,100,60,26,12.6,6.25, r13 BrdU alone), the “Combined results ratio (CRR), BrdU 0.02 mM” value came to 1.0. Besides, in assay [2] (BrdU 0.02 mM for 4 H, STSP for 18 H, total 22 H, STSP nM rows r7-r12: 200,100,60,26,12.6,6.25, r14 BrdU alone), the “Growth inhibition (MTT), BrdU 0.02 mM” value is recorded as 5%. Besides, the “Combined results ratio (CRR), BrdU 0.06 mM” value in assay [2] (BrdU 0.06 mM for 4 H, STSP for 18 H, total 22 H, STSP nM rows r7-r12: 200,100,60,26,12.6,6.25, r13 BrdU alone) was 1.0. Besides, the “Growth inhibition (MTT), BrdU 0.06 mM” value in assay [2] (BrdU 0.06 mM for 4 H, STSP for 18 H, total 22 H, STSP nM rows r7-r12: 200,100,60,26,12.6,6.25, r14 BrdU alone) was found to be 10%. Further, the “Combined results ratio (CRR), BrdU 0.09 mM” value in assay [2] (BrdU 0.09 mM for 4 H, STSP for 18 H, total 22 H, STSP nM rows r7-r12: 200,100,60,26,12.6,6.25, r13 BrdU alone) is given as 1.0. Moreover, the “Growth inhibition (MTT), BrdU 0.09 mM” value in assay [2] (BrdU 0.09 mM for 4 H, STSP for 18 H, total 22 H, STSP nM rows r7-r12: 200,100,60,26,12.6,6.25, r14 BrdU alone) was determined as 21%. Further, the “Combined results ratio (CRR), BrdU 3.00 mM” value in assay [2] (BrdU 3.00 mM for 4 H, STSP for 18 H, total 22 H, STSP nM rows r7-r12: 200,100,60,26,12.6,6.25, r13 BrdU alone) stood at 1.0. The “Growth inhibition (MTT), BrdU 3.00 mM” value in assay [2] (BrdU 3.00 mM for 4 H, STSP for 18 H, total 22 H, STSP nM rows r7-r12: 200,100,60,26,12.6,6.25, r14 BrdU alone) is 61%. For the same molecule, the “Combined results ratio (CRR), BrdU […]” value in assay [2] (BrdU […] for 4 H, STSP for 18 H, total 22 H, STSP nM rows r7-r12: 200,100,60,26,12.6,6.25, r13 BrdU alone) turned out to be 1.0.
In the case of `CCCCCCCCCCCCCC(=O)O[C@@H]1[C@@H](C)[C@@]2(O)[C@@H](C=C(CO)C[C@]3(O)C(=O)C(C)=C[C@@H]23)[C@H]2C(C)(C)[C@]12OC(C)=O` [TPA, 12-0-tetradecanoyl-phorbol-13-acetate], in assay [3] (10 nM TPA 48 hours differentiation, then dThd […], STSP 25 nM 7 hours), the “Effect on dThd potentiation of STSP DNA fragmentation” value is “significantly reduced dThd potentiation of DNA fragmentation during STSP treatment”.
Consider `Nc1ccn([C@H]2C[C@H](O)[C@@H](CO)O2)c(=O)n1` [dCyt, deoxycytidine], for which the “Effect on DNA fragmentation by dThd and STSP” value in assay [3] (dCyt added to U937 cultures treated with dThd and STSP) is reported as “decreased DNA fragmentation”.
